Experimental data taken from patent US20230416785A1, “NUCLEASE AND APPLICATION THEREOF” (CRISP-HR Therapeutics, Inc., priority 2020, published 2023).
Entries after “also recorded” stand apart in the source; their conditions may differ.

Columns and labels:
A549 cells [1] = assay: Pifithrin-α treatment of A549 cells transfected with Cas9 or Cas9-HR, resazurin viability; type: cell-based, human
Method: (§1) 20 μL of 0.15 mg/mL Resazurin solution was added to cells either plated in 96 well plates for all cell lines, which were then incubated for ˜4 hours at 37° C. Cellular toxicity was quantified using a Tecan SpectraFlour Plus plate reader (Tecan) using a 535/595 filter set. Raw data was then normalized to the mean of the untransfected controls and plotted as described.

HBB amplicon = assay: In-vitro exonuclease assay with purified proteins; type: biochemical, human; conditions: 30 nM protein, 3 nM HBB amplicon, 37° C., 60 minutes
Method: Reactions were then electrophoresed and visualized on an agarose gel. FIG. 5C illustrates quantification of exonuclease activity. Quantification of exonuclease activity assayed in FIG. 5B. 3 replicates were performed for each reaction and were quantified via FIJI (ImageJ) and then normalized to control amplicon levels.
Reactions were then electrophoresed and visualized on an agarose gel.
DNA was isolated from wildtype K562 cells, and amplified using standard Taq DNA polymerase and HBB-out-F (5′-[…]-3′ (SEQ ID NO: 125)) and HBB-out-R (5′-[…]-3′ (SEQ ID NO: 126)), Tm=56 for 35 cycles, and purified using the Qiagen PCR cleanup kit. […] The samples were then electrophoresed on a standard 1% TAE agarose gel stained with gel green.

endogenous H2B = assay: H2B-mNeon knock-in HDR quantification in K562 cells; type: cell-based, human; conditions: H2B-mNeon RT, genome specific plus RT specific primers
Method: After two days, cells were fixed in 4% PFA washed in PBS, then directly imaged, with cells showing nuclear localized fluorescence counted as successful HDR events.
K562 were grown in 24 well plates with RPMI-1640 supplemented with 5% FBS until roughly 70% confluent. At that time cells were either electroporated using the mNeon system (Invitrogen) using optimized settings for K562 cells, or lipofectamine 3000 again following manufactures instructions. Cells were then returned to 24 well plates with fresh media and grown for at least two days before being used in downstream analysis.
After 2 days, cells attached to coverslips coated with 0.01% poly-1-lysine, and were fixed in 4% PFA (Thermofisher) for 15 minutes at RT. After fixation, cells were washed 3× in PBS, mounted in 50% glycerol and imaged on a Nikon Eclipse E600 with standard FITC filters. For quantification, random patches of cells (usually between 8-15 cells per image) were identified via Brightfield, then fluoresce images were taken with constant illumination and exposure time (100%, and 110 ms respectively).

A549 cells [2] = assay: Cellular toxicity / viability of transfected A549 cells (resazurin assay); type: cell-based
Method: A549 cells were chosen as they are both facile to grow and transfect, cost effective in terms of media and other reagents, and importantly have retained a functional p53 gene.
Cells were then allowed to recover for one additional day, after which viability was cells were incubated with resazurin (Millipore Sigma) for 4 hours, after which fluorescence was quantified by a plate reader (Perkin Elmer).
Unless otherwise noted, adherent cells (A549 or H1299) were seeded in 96 well plates and grown in either 50/50 F-12/DMEM or RPMI-1640 respectively, supplemented with 5% FBS and grown to roughly 70% confluency. Cells were then transfected with either Cal-Phos as described in Chen 2012 or Lipofectamine 3000 (Thermofisher). Fresh media was exchanged the next day and cellular viability was quantified on day 2.
as §1
as §1, with “described. […] Stats: All two-sided students T-test with unequal variance.” for “described.”

| Compound | cellular viability over a dilution series (A549 cells [1]; 10 nM-10 μM Pifithrin-α, A549 cells transfected with Cas9) | effect on viability / Cas9 mediated toxicity compared to DMSO (A549 cells [1]; 10 μM Pifithrin-α, A549 cells transfected with Cas9) | effect on viability / toxicity compared to DMSO (A549 cells [1]; 10 μM Pifithrin-α, A549 cells transfected with Cas9-HR 8) | increase in cellular viability compared to DMSO (A549 cells [1]; 10 μM Pifithrin-α, A549 cells transfected with Cas9, two days) | exonuclease activity (reduction of full length HBB amplicon) (HBB amplicon) | PCR of 5′ and 3′ knock-in junctions (endogenous H2B) | cellular toxicity (A549 cells [2]; Int-G2 and Int-G3, CalPhos) | toxicity targeting G-2 rather than G-3 (A549 cells [2]; Int-G2 vs Int-G3) | reduction in cellular toxicity compared to Cas9 or Cas9+hExo1 (A549 cells [2]; targeting HBB-G3) |
| --- | --- | --- | --- | --- | --- | --- | --- | --- | --- |
| Cc1ccc(C(=O)Cn2c3c(sc2=N)CCCC3)cc1 [Pifithrin-α] | dose dependent response in cellular viability; also recorded: decreasing levels of toxicity with increasing concentrations; also recorded: Dose dependent increases in cellular viability | reduces Cas9 mediated cellular toxicity; also recorded: statistically significant (p<0.001) increase in viability; also recorded: increase in cellular viability | does not affect cellular toxicity; also recorded: no significant change in cellular viability; also recorded: no effect | ~2 fold | – | – | – | – | – |
| Cas9-HR 4: hExo1(1-352)-Cas9 fusion of FIG. 1A; E. coli codon optimized vector SEQ ID NO: 67 | – | – | – | – | did not show Exonuclease activity; also recorded: no significant activity | Successful amplification | dramatic reduction in cellular toxicity | significantly more toxicity | greatest reduction |
